Earlier results in patent US20060058225A1, “Used of inhibitors of phospholipase a2 for the treatment, prevention or diagnosis of neural inflammatory or demyelinating disease” (McGill University, priority 2002, published 2006).
Read-outs that look alike come from different tables or passages of the source.

What was measured:
[1] = system: EAE; details: for disease severity score in treated mice: timing of treatment not stated
[2] = system: EAE
[3] = system: EAE; remark: listed apart in the source
[4] = system: Ca++-independent PLA2
[5] = biological target: T1, cPLA2 (Homo sapiens, UniProt P47712)
T1 sequence (P47712 1-749): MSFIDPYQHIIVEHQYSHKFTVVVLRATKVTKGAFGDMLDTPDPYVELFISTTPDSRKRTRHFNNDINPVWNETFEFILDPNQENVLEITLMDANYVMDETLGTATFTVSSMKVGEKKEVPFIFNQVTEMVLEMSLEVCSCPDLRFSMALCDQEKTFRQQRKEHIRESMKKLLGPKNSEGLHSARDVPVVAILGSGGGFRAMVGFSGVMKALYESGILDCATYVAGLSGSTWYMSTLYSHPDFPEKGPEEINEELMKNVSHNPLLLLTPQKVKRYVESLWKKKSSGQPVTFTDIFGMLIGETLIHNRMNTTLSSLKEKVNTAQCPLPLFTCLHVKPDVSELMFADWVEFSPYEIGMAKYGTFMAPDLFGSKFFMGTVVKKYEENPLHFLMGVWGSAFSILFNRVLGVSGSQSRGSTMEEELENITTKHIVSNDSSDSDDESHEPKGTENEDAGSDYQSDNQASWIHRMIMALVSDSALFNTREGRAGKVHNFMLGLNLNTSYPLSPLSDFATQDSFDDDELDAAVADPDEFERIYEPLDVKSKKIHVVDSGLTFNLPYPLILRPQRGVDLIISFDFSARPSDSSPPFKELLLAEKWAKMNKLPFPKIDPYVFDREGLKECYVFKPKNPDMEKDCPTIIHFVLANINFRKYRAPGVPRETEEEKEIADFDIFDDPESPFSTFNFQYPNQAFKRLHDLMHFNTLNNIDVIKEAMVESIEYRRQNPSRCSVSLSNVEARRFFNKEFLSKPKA

[6] = system: MS; details: for effect on relapses: MS patients
[7] = system: sPLA2
[8] = system: EAE; details: guinea pigs
[9] = system: 180 kDa calcium-dependent form of cPLA2; details: isolated from human brain
[10] = treatment given after symptoms occurred

Molecule: CCCOc1cc([C@]2(C)CNC(=O)O2)ccc1OC [Mesopram]
- clinical score in treated mice ([1]; treatment after symptoms began / at first clinical signs): 2.7
- EAE occurrence ([2]; rats treated before the onset of symptoms): prevented

Molecule: NS(=O)(=O)c1cccc2c1c([N+](=O)[O-])cc1nc(O)c(O)nc12 [NBQX]
- clinical score in treated animals ([3]; in vivo): 1.5

Molecule: O=C1O/C(=C/Br)CCC1c1cccc2ccccc12 (stereo not shown) [bromoenol lactone]
- inhibition of Ca++-independent PLA2 [4]: inhibitors
- inhibition of cPLA2 [5]: inhibitors

Molecule: O=C(NN=C1CCCCC1)C(=O)NN=C1CCCCC1 [cuprizone]
- clinical score in treated mice ([1]; treatment before symptoms appeared (cuprizone: one week before EAE induction)): 3.3

Molecule: O=C1c2c(O)ccc(O)c2C(=O)c2c(NCCNCCO)ccc(NCCNCCO)c21 [mitroxantrone]
- effect on relapses [6]: reduces relapse rate
- side effects ([6]; patients): cardiac toxicity

Molecule: O=C(CBr)c1ccc(Br)cc1 [p-bromophenacyl bromide]
- inhibition of sPLA2 activity [7]: blocked

Molecule: CN1C(C(=O)Nc2ccccn2)=C(O)c2ccccc2S1(=O)=O [piroxicam]
- mean clinical grade/score in treated rats ([2]; rats): 1.5

Molecule: CC1=C(/C=C/C(C)=C/C=C/C(C)=C/C(N)=O)C(C)(C)CCC1 [retinamide]
- relapse ([3]; given after disease symptoms appeared): no relapse
- clinical grade, end of course ([3]; given prior to EAE induction): 0.75
- relapse ([3]; given prior to EAE induction): no sign of relapse
- clinical grade reached ([3]; given prior to EAE induction, controls 3 during relapses): 2
- clinical grade, end of course [3, 10]: 2
- clinical grade, start of course [3, 10]: 4

Molecule: O=C(O)c1cc(/N=N/c2ccc(S(=O)(=O)Nc3ccccn3)cc2)ccc1O [sulfasalazine]
- disease incidence [8]: reduced disease incidence

Molecule: Glatiramer acetate
- effect on relapses [6]: decreases the rate of relapse
- side effects ([6]; human, in vivo): cardiovascular problems such as chest pain, flushing and tachycardia

Molecule: IFN-γ: interferon gamma
- effect on relapses [6]: increases the severity of the rate of relapse

Molecule: MT-II: Metallothinine (MT), thought to protect cells from reactive oxygen species
- clinical score ([2]; rats treated starting at the day of onset of symptoms, controls 4.5): 2

Molecule: bromophenacyl bromide
- inhibition of 180 kDa calcium-dependent cPLA2 [9]: inhibited

Molecule: estrogen
- delay of disease onset ([1]; mice): about 10 days
- reduction of EAE incidence ([1]; mice, timing not given): ~30%
- disease severity score in treated mice [1]: 1.5

B1: MBP: myelin basic protein fed for oral tolerance (protein, UniProt P02686 1-304, looked up)
Myelin basic protein: MGNHAGKRELNAEKASTNSETNRGESEKKRNLGELSRTTSEDNEVFGEADANQNNGTSSQDTAVTDSKRTADPKNAWQDAHPADPGSRPHLIRLFSRDAPGREDNTFKDRPSESDELQTIQEDSAATSESLDVMASQKRPSQRHGSKYLATASTMDHARHGFLPRHRDTGILDSIGRFFGGDRGAPKRGSGKDSHHPARTAHYGSLPQKSHGRTQDENPVVHFFKNIVTPRTPPPSQGKGRGLSLSRFSWGAEGQRPGFGYGGRASDYKSAHKGFKGVDAQGTLSKIFKLGGRDSRSGSPMARR
- disease severity score in treated mice [1]: 0.6
- reduction of EAE incidence ([3]; animals, species not given): 80%
- maximum disease severity score ([2]; rats fed prior to disease induction, control 4): 1.4
